According to PMC9683047, “Design, synthesis and biological evaluation of 4-aminoquinoline derivatives as receptor-interacting protein kinase 2 (RIPK2) inhibitors” (Journal of Enzyme Inhibition and Medicinal Chemistry, 2022):

Experiments:
JAK2(h) = molecular target: T1, JAK2(h) (Homo sapiens, UniProt O60674); assay: Kinase selectivity panel: JAK2; type: biochemical; settings: 1 µM
T1 construct: purchased Eurofins (Millipore) KinaseProfiler Diversity Panel
Protocol: (§1) To confirm the anti-inflammatory effect was caused by RIPK2 inhibition, compound 14 was subjected to kinase selectivity evaluation (Figure 4). Kinase selectivity profile of compound 14 as shown by the diversity kinase Panel screen against 70 kinases assayed at 1 µM. Among all tested 70 kinases, only five were inhibited over 90% at 1 µM including Fyn, Lyn, BTK, Abl and RIPK2. Three kinases including KDR, CDK9 and LOK were inhibited 50–90% at 1 µM.

ROCK-I(h) = molecular target: T2, ROCK-I(h) (Homo sapiens, UniProt Q13464); assay: Kinase selectivity panel: ROCK-I; type: biochemical; settings: 1 µM
T2 construct: purchased Eurofins (Millipore) KinaseProfiler Diversity Panel
T2 sequence (Q13464 whole entry): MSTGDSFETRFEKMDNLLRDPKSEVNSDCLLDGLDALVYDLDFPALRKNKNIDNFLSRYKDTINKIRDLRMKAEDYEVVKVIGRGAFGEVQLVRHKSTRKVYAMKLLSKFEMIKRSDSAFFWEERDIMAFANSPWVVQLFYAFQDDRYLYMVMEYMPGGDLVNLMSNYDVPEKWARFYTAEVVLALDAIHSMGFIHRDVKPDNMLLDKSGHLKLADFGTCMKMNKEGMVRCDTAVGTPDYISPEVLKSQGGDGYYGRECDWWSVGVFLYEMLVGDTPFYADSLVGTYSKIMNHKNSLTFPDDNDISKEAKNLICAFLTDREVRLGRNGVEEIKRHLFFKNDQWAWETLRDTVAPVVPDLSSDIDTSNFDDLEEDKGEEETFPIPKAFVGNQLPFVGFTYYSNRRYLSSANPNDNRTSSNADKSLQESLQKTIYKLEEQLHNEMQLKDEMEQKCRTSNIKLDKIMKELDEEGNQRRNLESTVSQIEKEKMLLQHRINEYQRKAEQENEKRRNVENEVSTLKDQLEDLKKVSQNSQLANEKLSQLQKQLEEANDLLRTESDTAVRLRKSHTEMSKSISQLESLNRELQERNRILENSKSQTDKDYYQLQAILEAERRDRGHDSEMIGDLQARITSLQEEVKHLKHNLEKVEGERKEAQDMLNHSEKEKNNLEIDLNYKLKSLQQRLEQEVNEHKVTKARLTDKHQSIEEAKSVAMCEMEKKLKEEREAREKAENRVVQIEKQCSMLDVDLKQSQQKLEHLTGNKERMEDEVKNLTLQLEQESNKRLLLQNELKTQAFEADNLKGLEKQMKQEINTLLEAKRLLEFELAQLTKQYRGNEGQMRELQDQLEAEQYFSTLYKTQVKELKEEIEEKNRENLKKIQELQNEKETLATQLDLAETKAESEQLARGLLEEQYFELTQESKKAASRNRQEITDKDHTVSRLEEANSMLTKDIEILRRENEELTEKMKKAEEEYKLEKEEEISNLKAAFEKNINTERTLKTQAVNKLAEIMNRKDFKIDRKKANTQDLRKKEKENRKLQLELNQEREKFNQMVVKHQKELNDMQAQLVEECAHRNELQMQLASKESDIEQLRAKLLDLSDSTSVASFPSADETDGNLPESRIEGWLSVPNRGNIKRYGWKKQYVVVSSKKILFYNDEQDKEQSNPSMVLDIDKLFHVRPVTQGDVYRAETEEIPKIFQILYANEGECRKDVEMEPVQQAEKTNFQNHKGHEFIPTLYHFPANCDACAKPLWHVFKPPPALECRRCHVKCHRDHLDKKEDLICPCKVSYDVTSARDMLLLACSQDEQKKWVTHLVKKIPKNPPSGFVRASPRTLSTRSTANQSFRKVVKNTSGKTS
Protocol: as §1

[1] = Human liver microsome stability; type: in vitro ADME; settings: human liver microsomes
LOK(h) = molecular target: T3, LOK(h) (Homo sapiens, UniProt O94804); assay: Kinase selectivity panel: LOK; type: biochemical
T3 construct: purchased Eurofins (Millipore) KinaseProfiler Diversity Panel
T3 sequence (O94804 whole entry): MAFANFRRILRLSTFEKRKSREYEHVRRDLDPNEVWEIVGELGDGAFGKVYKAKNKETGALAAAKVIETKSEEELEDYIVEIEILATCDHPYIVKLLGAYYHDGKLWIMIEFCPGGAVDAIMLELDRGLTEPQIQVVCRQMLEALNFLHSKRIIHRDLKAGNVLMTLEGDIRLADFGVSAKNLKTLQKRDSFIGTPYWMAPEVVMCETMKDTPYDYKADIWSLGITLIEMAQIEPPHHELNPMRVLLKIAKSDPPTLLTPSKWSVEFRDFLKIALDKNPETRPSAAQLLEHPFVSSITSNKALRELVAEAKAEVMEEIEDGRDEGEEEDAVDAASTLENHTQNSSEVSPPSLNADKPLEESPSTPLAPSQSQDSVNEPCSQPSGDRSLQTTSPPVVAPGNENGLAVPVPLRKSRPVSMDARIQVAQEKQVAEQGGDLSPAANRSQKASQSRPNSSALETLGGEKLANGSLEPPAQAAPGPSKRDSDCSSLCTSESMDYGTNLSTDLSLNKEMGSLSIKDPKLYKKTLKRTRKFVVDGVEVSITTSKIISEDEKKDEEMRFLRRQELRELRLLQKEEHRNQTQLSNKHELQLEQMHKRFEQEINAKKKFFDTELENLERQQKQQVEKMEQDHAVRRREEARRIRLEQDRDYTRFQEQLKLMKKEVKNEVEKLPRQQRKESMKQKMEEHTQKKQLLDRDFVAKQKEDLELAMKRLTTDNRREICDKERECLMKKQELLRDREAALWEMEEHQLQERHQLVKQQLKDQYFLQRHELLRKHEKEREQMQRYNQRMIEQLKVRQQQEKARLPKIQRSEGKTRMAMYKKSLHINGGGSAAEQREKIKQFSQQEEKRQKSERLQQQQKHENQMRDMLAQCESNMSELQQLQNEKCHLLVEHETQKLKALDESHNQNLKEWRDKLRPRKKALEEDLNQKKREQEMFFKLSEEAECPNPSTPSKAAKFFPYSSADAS
Protocol: as §1

CDK2/cyclinA(h) = molecular target: T4, CDK2/cyclinA(h) (Homo sapiens, UniProt P24941); assay: Kinase selectivity panel: CDK2/cyclinA; type: biochemical
T4 construct: purchased Eurofins (Millipore) KinaseProfiler Diversity Panel
Protocol: as §1

TYK2(h) = molecular target: T5, TYK2(h) (Homo sapiens, UniProt P29597); assay: Kinase selectivity panel: TYK2; type: biochemical; settings: 1 µM
T5 construct: purchased Eurofins (Millipore) KinaseProfiler Diversity Panel
Protocol: as §1

Rse(h) = molecular target: T6, Rse(h) (Homo sapiens, UniProt Q06418); assay: Kinase selectivity panel: Rse; type: biochemical; settings: 1 µM
T6 construct: purchased Eurofins (Millipore) KinaseProfiler Diversity Panel
Protocol: as §1

EGFR(h) = molecular target: T7, EGFR(h) (Homo sapiens, UniProt P00533); assay: Kinase selectivity panel: EGFR; type: biochemical; parameters: unit not given here
T7 construct: purchased Eurofins (Millipore) KinaseProfiler Diversity Panel
Protocol: as §1

MLK1(h) = molecular target: T8, MLK1(h) (Homo sapiens, UniProt P80192); assay: Kinase selectivity panel: MLK1; type: biochemical
T8 construct: purchased Eurofins (Millipore) KinaseProfiler Diversity Panel
Protocol: as §1

BTK(R28H)(h) = molecular target: T9, BTK(R28H)(h) (Homo sapiens, UniProt Q06187, R28H); assay: Kinase selectivity panel: BTK(R28H); type: biochemical; settings: 1 µM
T9 construct: purchased Eurofins (Millipore) KinaseProfiler Diversity Panel
Protocol: as §1

Mnk2(h) = molecular target: T10, Mnk2(h) (Homo sapiens, UniProt Q9HBH9); assay: Kinase selectivity panel: Mnk2; type: biochemical
T10 construct: purchased Eurofins (Millipore) KinaseProfiler Diversity Panel
Protocol: as §1

NEK2(h) = molecular target: T11, NEK2(h) (Homo sapiens, UniProt P51955); assay: Kinase selectivity panel: NEK2; type: biochemical; settings: 1 µM
T11 construct: purchased Eurofins (Millipore) KinaseProfiler Diversity Panel
T11 sequence (P51955 whole entry): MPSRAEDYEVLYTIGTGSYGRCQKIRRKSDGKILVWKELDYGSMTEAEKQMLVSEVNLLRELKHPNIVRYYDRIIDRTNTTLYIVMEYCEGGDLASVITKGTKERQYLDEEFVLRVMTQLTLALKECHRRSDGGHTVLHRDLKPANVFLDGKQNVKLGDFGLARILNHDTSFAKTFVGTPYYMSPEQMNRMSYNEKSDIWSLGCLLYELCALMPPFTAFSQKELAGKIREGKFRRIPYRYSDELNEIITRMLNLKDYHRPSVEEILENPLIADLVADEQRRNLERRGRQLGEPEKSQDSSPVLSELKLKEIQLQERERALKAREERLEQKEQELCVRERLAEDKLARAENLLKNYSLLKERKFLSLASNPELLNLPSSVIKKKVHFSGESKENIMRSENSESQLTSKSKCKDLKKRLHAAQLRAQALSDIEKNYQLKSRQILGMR
Protocol: as §1

IGF-1R(h) = molecular target: T12, IGF-1R(h) (Homo sapiens, UniProt P08069); assay: Kinase selectivity panel: IGF-1R; type: biochemical; settings: 1 µM
T12 construct: purchased Eurofins (Millipore) KinaseProfiler Diversity Panel
Protocol: as §1

CDK9/cyclin T1(h) = molecular target: T13, CDK9/cyclin T1(h) (Homo sapiens, UniProt P50750); assay: Kinase selectivity panel: CDK9/cyclin T1; type: biochemical
T13 construct: purchased Eurofins (Millipore) KinaseProfiler Diversity Panel
T13 sequence (P50750 whole entry): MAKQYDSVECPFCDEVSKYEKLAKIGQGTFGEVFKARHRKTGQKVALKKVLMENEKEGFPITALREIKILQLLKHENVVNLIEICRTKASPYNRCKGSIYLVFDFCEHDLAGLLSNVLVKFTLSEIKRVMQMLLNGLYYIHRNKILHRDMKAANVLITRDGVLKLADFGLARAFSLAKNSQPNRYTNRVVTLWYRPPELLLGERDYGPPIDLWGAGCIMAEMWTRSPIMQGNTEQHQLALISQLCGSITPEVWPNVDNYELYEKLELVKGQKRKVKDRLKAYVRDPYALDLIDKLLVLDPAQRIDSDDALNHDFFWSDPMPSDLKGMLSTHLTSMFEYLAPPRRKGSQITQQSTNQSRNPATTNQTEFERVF
T13 sequence (O60563 whole entry partner): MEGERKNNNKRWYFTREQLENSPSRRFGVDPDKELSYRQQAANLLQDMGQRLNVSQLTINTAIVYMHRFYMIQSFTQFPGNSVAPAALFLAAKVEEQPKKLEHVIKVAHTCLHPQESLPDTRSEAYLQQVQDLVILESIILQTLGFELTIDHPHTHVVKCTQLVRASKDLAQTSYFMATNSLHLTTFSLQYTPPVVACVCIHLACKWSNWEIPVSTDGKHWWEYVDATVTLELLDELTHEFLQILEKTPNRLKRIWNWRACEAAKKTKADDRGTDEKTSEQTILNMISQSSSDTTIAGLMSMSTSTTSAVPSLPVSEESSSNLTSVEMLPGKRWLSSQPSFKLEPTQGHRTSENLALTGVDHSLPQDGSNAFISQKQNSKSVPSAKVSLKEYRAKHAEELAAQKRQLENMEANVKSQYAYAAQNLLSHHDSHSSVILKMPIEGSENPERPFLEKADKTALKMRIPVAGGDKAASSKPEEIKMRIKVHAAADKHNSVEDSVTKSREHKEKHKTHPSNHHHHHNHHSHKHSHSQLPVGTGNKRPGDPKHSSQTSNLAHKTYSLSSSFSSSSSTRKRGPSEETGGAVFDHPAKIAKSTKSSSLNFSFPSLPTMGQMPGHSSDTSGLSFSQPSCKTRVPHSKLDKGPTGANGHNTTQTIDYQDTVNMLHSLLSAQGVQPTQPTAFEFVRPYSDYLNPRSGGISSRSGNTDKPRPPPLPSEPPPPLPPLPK
Protocol: as §1

EphB4(h) = molecular target: T14, EphB4(h) (Homo sapiens, UniProt P54760); assay: Kinase selectivity panel: EphB4; type: biochemical
T14 construct: purchased Eurofins (Millipore) KinaseProfiler Diversity Panel
Protocol: as §1

Aurora-A(h) = molecular target: T15, Aurora-A(h) (Homo sapiens, UniProt O14965); assay: Kinase selectivity panel: Aurora-A; type: biochemical; settings: 1 µM
T15 construct: purchased Eurofins (Millipore) KinaseProfiler Diversity Panel
Protocol: as §1

JAK1(h) = molecular target: T16, JAK1(h) (Homo sapiens, UniProt P23458); assay: Kinase selectivity panel: JAK1; type: biochemical
T16 construct: purchased Eurofins (Millipore) KinaseProfiler Diversity Panel
Protocol: as §1

[2] = system: MDP-induced TNF-α secretion in Raw264.7; assay: TNF-α secretion in MDP-induced Raw264.7 (ELISA); type: cell-based, mouse; settings: Raw264.7, compounds 1 h then L18-MDP 20 µg/mL 24 h, series concentration
Protocol: Raw 264.7 was cultured in DMEM containing 10% (w/v) foetal bovine serum (FBS). Cell were seeded at a density of 1 × 10^5 cells/well in a 48 well plate overnight, then cells were treated with different concentrations of compounds for1h, following by stimulated with L18-MDP (20 µg/mL, Invivogen) for 24 h. The Cell supernatants were harvested for enzyme-linked immunosorbent assay (ELISA).
TNFα commercial ELISA kits (DAKEWE) were used to detect TNFα in cell culture supernatants according to the manufacturer’s instructions. The concentration of cytokines was determined using multiwell spectrophotometer (SpetraMAX PLUS, Molecular Devices).

PAK2(h) = molecular target: T17, PAK2(h) (Homo sapiens, UniProt Q13177); assay: Kinase selectivity panel: PAK2; type: biochemical; settings: 1 µM
T17 construct: purchased Eurofins (Millipore) KinaseProfiler Diversity Panel
Protocol: as §1

PKCθ(h) = molecular target: T18, PKCθ(h) (Homo sapiens, UniProt Q04759); assay: Kinase selectivity panel: PKCθ; type: biochemical
T18 construct: purchased Eurofins (Millipore) KinaseProfiler Diversity Panel
Protocol: as §1

Syk(h) = molecular target: T19, Syk(h) (Homo sapiens, UniProt P43405); assay: Kinase selectivity panel: Syk; type: biochemical
T19 construct: purchased Eurofins (Millipore) KinaseProfiler Diversity Panel
Protocol: as §1

IRAK4(h) = molecular target: T20, IRAK4(h) (Homo sapiens, UniProt Q9NWZ3); assay: Kinase selectivity panel: IRAK4; type: biochemical
T20 construct: purchased Eurofins (Millipore) KinaseProfiler Diversity Panel
Protocol: as §1

SRPK1(h) = molecular target: T21, SRPK1(h) (Homo sapiens, UniProt Q96SB4); assay: Kinase selectivity panel: SRPK1; type: biochemical; parameters: unit not given here
T21 construct: purchased Eurofins (Millipore) KinaseProfiler Diversity Panel
Protocol: as §1

PKCα(h) = molecular target: T22, PKCα(h) (Homo sapiens, UniProt P17252); assay: Kinase selectivity panel: PKCα; type: biochemical; settings: 1 µM
T22 construct: purchased Eurofins (Millipore) KinaseProfiler Diversity Panel
Protocol: as §1

CaMKI(h) = molecular target: T23, CaMKI(h) (Homo sapiens, UniProt Q14012); assay: Kinase selectivity panel: CaMKI; type: biochemical; settings: 1 µM
T23 construct: purchased Eurofins (Millipore) KinaseProfiler Diversity Panel
Protocol: as §1

MST1(h) = molecular target: T24, MST1(h) (Homo sapiens, UniProt Q13043); assay: Kinase selectivity panel: MST1; type: biochemical
T24 construct: purchased Eurofins (Millipore) KinaseProfiler Diversity Panel
T24 sequence (Q13043 whole entry): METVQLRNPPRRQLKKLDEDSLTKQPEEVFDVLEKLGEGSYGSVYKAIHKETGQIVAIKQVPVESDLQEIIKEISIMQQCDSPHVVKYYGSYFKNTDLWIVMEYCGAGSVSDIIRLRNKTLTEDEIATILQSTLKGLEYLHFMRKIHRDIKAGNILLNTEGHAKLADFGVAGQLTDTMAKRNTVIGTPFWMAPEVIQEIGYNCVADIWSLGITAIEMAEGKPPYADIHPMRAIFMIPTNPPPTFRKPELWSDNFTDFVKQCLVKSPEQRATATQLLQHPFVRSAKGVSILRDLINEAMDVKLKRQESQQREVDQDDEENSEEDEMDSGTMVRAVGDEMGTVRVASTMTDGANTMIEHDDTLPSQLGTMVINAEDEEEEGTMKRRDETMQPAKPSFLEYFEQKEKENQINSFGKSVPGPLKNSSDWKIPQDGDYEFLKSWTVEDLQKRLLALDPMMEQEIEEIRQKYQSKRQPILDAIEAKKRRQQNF
Protocol: as §1

[3] = molecular target: T25, PI3 Kinase (p110a/p85a)(h) (Homo sapiens, UniProt P42336); assay: Kinase selectivity panel: PI3 Kinase (p110a/p85a); type: biochemical; settings: 1 µM
T25 construct: purchased Eurofins (Millipore) KinaseProfiler Diversity Panel
Protocol: as §1

Fyn(h) = molecular target: T26, Fyn(h) (Homo sapiens, UniProt P06241); assay: Kinase selectivity panel: Fyn; type: biochemical
T26 construct: purchased Eurofins (Millipore) KinaseProfiler Diversity Panel
T26 sequence (P06241 whole entry): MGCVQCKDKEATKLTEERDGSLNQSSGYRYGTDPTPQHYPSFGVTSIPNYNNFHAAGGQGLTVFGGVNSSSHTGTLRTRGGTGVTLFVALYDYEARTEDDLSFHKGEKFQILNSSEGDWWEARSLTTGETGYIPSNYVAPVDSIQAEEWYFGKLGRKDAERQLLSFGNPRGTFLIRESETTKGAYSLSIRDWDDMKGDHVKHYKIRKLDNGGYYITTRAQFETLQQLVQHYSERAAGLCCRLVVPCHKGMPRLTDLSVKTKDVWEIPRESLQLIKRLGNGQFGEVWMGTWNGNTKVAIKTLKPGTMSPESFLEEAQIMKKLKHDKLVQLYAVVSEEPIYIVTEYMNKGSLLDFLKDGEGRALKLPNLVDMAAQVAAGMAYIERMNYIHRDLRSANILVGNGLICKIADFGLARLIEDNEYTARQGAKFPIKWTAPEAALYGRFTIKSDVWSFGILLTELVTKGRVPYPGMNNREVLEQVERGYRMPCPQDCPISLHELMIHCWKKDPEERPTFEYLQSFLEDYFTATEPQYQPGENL
Protocol: as §1

SAPK2a(h) = molecular target: T27, SAPK2a(h) (Homo sapiens, UniProt Q16539); assay: Kinase selectivity panel: SAPK2a; type: biochemical
T27 construct: purchased Eurofins (Millipore) KinaseProfiler Diversity Panel
Protocol: as §1

ALK(h) = molecular target: T28, ALK(h) (Homo sapiens, UniProt Q9UM73); assay: Kinase selectivity panel: ALK; type: biochemical; settings: 1 µM
T28 construct: purchased Eurofins (Millipore) KinaseProfiler Diversity Panel
Protocol: as §1

c1cc(-c2ccc3nccc(Nc4ccc5scnc5c4)c3c2)ccn1 [Compound 14, N-(6-(pyridin-4-yl)quinolin-4-yl)benzo[d]thiazol-5-amine]
remaining kinase activity (%) (JAK2(h)): 93
Remaining kinase activity (% of control) (ROCK-I(h)): 70
CL [1]: 9.64 mL/min/kg
half-life [1]: 1.6 h
LOK remaining activity (% of control) (LOK(h); 1 µM): 44
inhibition at 1 µM (LOK(h); at 1 µM): 50 to 90%
CDK2/cyclinA remaining activity (%) with compound 14 at 1 µM (CDK2/cyclinA(h)): 78
kinase activity remaining (% of control) (TYK2(h)): 108
Remaining kinase activity (% of control) (Rse(h)): 121
EGFR(h), 14 @ 1 µM (EGFR(h)): 104
Remaining MLK1 activity (%) with compound 14 at 1 µM (MLK1(h)): 89
percent remaining kinase activity (BTK(R28H)(h)): 63
Mnk2 remaining activity (% of control) with compound 14 at 1 µM (Mnk2(h)): 68
percent remaining NEK2 kinase activity with compound 14 (NEK2(h)): 88
remaining IGF-1R activity (% of control) (IGF-1R(h)): 109
remaining kinase activity (%) (CDK9/cyclin T1(h); 1 µM): 41
inhibition at 1 µM (CDK9/cyclin T1(h); at 1 µM): 50 to 90%
EphB4 remaining activity (%) with compound 14 at 1 µM (EphB4(h)): 96
Remaining kinase activity (% of control) (Aurora-A(h)): 95
JAK1 remaining kinase activity with compound 14 at 1 µM (% of control) (JAK1(h)): 105
inhibition of MDP-induced TNF-α secretion [2]: strong inhibitory activity on MDP-induced TNF-α secretion with a dose-dependent manner
percent remaining kinase activity (PAK2(h)): 100
remaining kinase activity (% of control) at 1 µM (PKCθ(h)): 74
% remaining kinase activity with compound 14 at 1 µM (Syk(h)): 94
Percent remaining IRAK4 activity with compound 14 at 1 µM (IRAK4(h)): 107
SRPK1(h), 14 @ 1 µM (SRPK1(h)): 111
% remaining kinase activity (PKCα(h)): 94
percent kinase activity remaining (CaMKI(h)): 97
MST1 kinase activity remaining with compound 14 at 1 µM (% of control) (MST1(h)): 105
percent remaining kinase activity [3]: 81
Fyn remaining activity (%) (Fyn(h); 1 µM): 0
inhibition at 1 µM (Fyn(h); at 1 µM): > 90%
% remaining SAPK2a activity with compound 14 at 1 µM (SAPK2a(h)): 54
ALK remaining activity (% of control) (ALK(h)): 77
